Laboratory results published in patent US10065942B2, “Crystalline (2S)-3-[(3S,4S)-3-[(1R)-1-hydroxyethyl]-4-(4-methoxy-3-{[1-(5-methylpyridin-2-yl)azetidin-3-yl]oxy}phenyl)-3-methylpyrrolidin-1-yl]-3-oxopropane-1,2-diol” (Eli Lilly and Company, priority 2014, dated 2018).

System: chronic cyclophosphamide (CYP)-induced overactive bladder mouse model
Assay: Overactive Bladder In Vivo Model (chronic cyclophosphamide-induced OAB)
Settings: for Mean Voiding Frequency (no./4 hr) / Mean Volume/Void: oral daily, day 8, female C57/Bl6 mice
Procedure: The in vivo effect of PDE4 inhibitors on OAB is studied with a chronic cyclophosphamide (CYP)-induced overactive bladder mouse model adapted from Boudes et al., Neurourol. Urodynam. 2011. In a typical study, female C57/Bl6 mice, approximately 20 grams in body weight (Harlan Laboratories, Inc., Indianapolis, Ind.) are used. Mice are randomized by body weight into groups one day before the start of the study. Mice are individually housed and maintained on a 12 hour light/dark cycle at 22° C. with ad lib access to food (TD 2014 with 0.72% Ca and 0.61% P, 990 IU/g D3, Teklad™, Madison, Wis.) and water. Animals receive cyclophosphamide (dissolved in physiological saline) i.p. administration at 100 mg/kg on days 1, 3, 5, and 7 to chronically induce OAB. The vehicle control group received daily vehicle (HEC 1%/Tween 80 0.25%/Antifoam 0.05%) administered orally. All other groups are administered orally tadalafil at 10 mg/kg in combination with 0.1, 1.0, or 10.0 mg/kg of test compound daily at a volume of 200 μl/mouse. On day 8, mice are housed in urine collection chambers with a filter paper placed underneath chamber. Prior to urine collection, gavages of 1 ml water are given to each mouse. Urine is collected from 6 pm to 10 pm (i.e. for 4 hrs). Gel cups (DietGel™ 76A) are supplied as water source during the 4 hour period. The filter paper is changed every hour. Voiding frequency and volume/void are calculated using Image J software (NIH). Data are statistically analyzed with JMP8® software (Cary, N. C.).
All treatment groups receive a fixed dose of 10 mg/kg of tadalafil.

[1] = Example 2 0.1 mg/kg + tadalafil 10 mg/kg
[2] = Example 2 1.0 mg/kg + tadalafil 10 mg/kg
[3] = Example 2 10.0 mg/kg + tadalafil 10 mg/kg
[4] = given with tadalafil 10 mg/kg, 0.1, 1.0, 10.0 mg/kg oral daily

Compound: COc1ccc([C@@H]2CN(C(=O)[C@@H](O)CO)C[C@@]2(C)[C@@H](C)O)cc1OC1CN(c2ccc(C)cn2)C1 [Example 2, (2S)-3-[(3S,4S)-3-[(1R)-1-hydroxyethyl]-4-(4-methoxy-3-{[1-(5-methylpyridin-2-yl)azetidin-3-yl]oxy}phenyl)-3-methylpyrrolidin-1-yl]-3-oxopropane-1,2-diol]
- Mean Voiding Frequency (no./4 hr) [1]: 10 no./4 hr
- Mean Volume/Void [1]: 47.3 µL
- Mean Voiding Frequency (no./4 hr) [2]: 8.61 no./4 hr
- Mean Volume/Void [2]: 77.2 µL
- Mean Voiding Frequency (no./4 hr) [3]: 8.38 no./4 hr
- Mean Volume/Void [3]: 81.9 µL
- effect on urinary frequency (in words) [4]: significantly reduces urinary frequency in a dose-dependent fashion
- effect on volume/void (in words) [4]: increases of volume/void are also observed in a dose-dependent fashion
